Counter-ions that a name gives are not always drawn.
Experiments:
[1] = test system: IL-6; experiment: LPS-induced inflammation, capsule studies: plasma IL-6; format: in vivo, male Lewis rats
Experimental: To induce intestinal inflammation, 1 mg/kg LPS was injected intraperitoneally into rats at T5 h, this timing was chosen based on the CT imaging results, to allow capsules to reach the intestines. Inflammation-free control rats were instead intraperitoneally injected with an equal volume of PBS. Controls used in this study were naïve rats (no induction of inflammation, vehicle treatment (PBS)), treatment-free rats (LPS + vehicle (PBS)), and comparative treatment control rats (induction of inflammation, treatment with 1 mg/kg oral dexamethasone solution, formulated in PEG400/polysorbate 80 in deionized water (10/9/81), at T4 h). Animal sacrifice occurred at T8 h (3 h after LPS administration). Terminal plasma and colonic tissue were subsequently excised, and levels of IL-6 quantified using the V-PLEX validated immunoassay kit.

[2] = test system: IL-6; experiment: LPS-induced inflammation, capsule studies: colonic tissue IL-6; format: in vivo, male Lewis rats; settings: 1 mg/kg dexamethasone oral; targeted vs untargeted comparison, 8 h analysis
[3] = test system: IL-6; experiment: LPS-induced inflammation, ascending dose oral solution study: plasma IL-6; format: in vivo, male Lewis rats; settings: 1 mg/kg dexamethasone solution, 4 hours after administration
Experimental: (§1) Male Lewis rats were fasted overnight before the day of experiment. Rats were chosen as an in vivo model in these experiments as they are commonly used for assessment of IBD investigatory treatments. […] To induce intestinal inflammation, rats were intraperitoneally injected with 1 mg/kg LPS at T1 h. Intraperitoneal injection of LPS is an accepted method for instigating inflammation in rats as pharmacodynamic endpoints. […] Controls used in this study were naïve rats (no induction of inflammation, placebo treatment (PBS)), treatment-free rats (LPS + vehicle (PBS)), and comparative treatment control rats (induction of inflammation, treatment with 1 mg/kg oral dexamethasone solution, formulated in PEG400/polysorbate 80 in deionized water (10/9/81). Rats not treated with LPS were instead injected with the same volume of PBS solution.

[4] = test system: IL-6; experiment: LPS-induced inflammation, ascending dose oral solution study: colonic tissue IL-6; format: in vivo, male Lewis rats; settings: 4 hours
Experimental: as §1

[5] = test system: rat colonic microbiota; experiment: Ex vivo stability of tofacitinib in rat cecal slurry (colonic microbiota); format: in vitro ADME; settings: 1 mg/mL in rat cecal slurry, anaerobic
Experimental: The cecum of healthy rats (male, n = 6) was obtained shortly following animal sacrifice and transferred to an anaerobic workstation (Electrotek 500TG workstation, Electrotek, West Yorkshire, UK) maintained at 37 °C and 70% relative humidity. The rats’ cecums were opened and fluid was collected using aseptic technique to preserve the fluid’s microbial composition. Next, the fluid was homogenised with basal media (ratio 1:4, composition as used by Hughes et al. [29] at 10,000 rpm and sieved through a mesh with 5 µm aperture.
Samples were taken at 0, 1, 2, 4, and 6 h and immediately quenched with ice-cold acetonitrile at a ratio of 1:3 to arrest microbial/enzyme activity. Quenched samples were then centrifuged (9600× g, 10 min, 4 °C) and the supernatant was collected for quantification of drug concentration using HPLC.
A mobile phase consisting of 0.1% phosphoric acid in water (A) and acetonitrile (B) was used via a gradient method, whereby %A: 95 and %B: 5 from 0.0–4.0 min; and %A: 80 and %B: 20 from 4.0–6.0 min. An Agilent Zorbax-Extend C18 column (50 × 4.6 mm, 1.8 μm) (Santa Clara, CA, USA) at 1.8 mL/min, with column temperature equilibrated at 40 ± 2 °C. […] Drug concentration was calculated by comparing the area under the curve (AUC) of the drug’s peak in samples to those produced with a calibration curve.

[6] = 1 and 10 mg/kg tofacitinib solution

| Structure (SMILES) | plasma IL-6 levels compared to the untreated control ([1]; 1 mg/kg dexamethasone oral, targeted vs untargeted comparison, 8 h) | plasma IL-6 compared to the untreated control ([1]; 1 mg/kg oral dexamethasone solution, dose response study) | IL-6 concentration in colonic tissue compared to the untreated control [2] | IL-6 levels in plasma compared to the LPS + vehicle control [3] | colonic tissue IL-6 compared to the treatment-free control ([4]; 1 mg/kg dexamethasone) | time stable when delivered to the cecum/colon [5] | colonic IL-6 concentrations compared to the naïve rats [4, 6] | colonic tissue IL-6 compared to 0.1 mg/kg tofacitinib [4, 6] |
| --- | --- | --- | --- | --- | --- | --- | --- | --- |
| C[C@@H]1C[C@H]2[C@@H]3CCC4=CC(=O)C=C[C@]4(C)[C@@]3(F)[C@@H](O)C[C@]2(C)[C@@]1(O)C(=O)CO [dexamethasone] | significantly reduce | lowered | did not significantly alter | significantly lower | significantly lowered |  |  |  |
| C[C@@H]1CCN(C(=O)CC#N)C[C@@H]1N(C)c1ncnc2[nH]ccc12 [tofacitinib, Tofacitinib citrate] |  |  |  |  |  | at least 6 h | no significant difference | significantly lower |
